Data published in US12138346B2, “Physiologically active substance carrier” (LEMONEX INC., priority 2017, dated 2024).
One block for each molecule: values may come before it.

Legend:
Type in all cases: physicochemical
[1] = Release of doxorubicin from porous silica particles; conditions: loaded on porous silica particles of Example 1-(1); PBS, 37° C., 200 rpm
Description: 0.5 mg of porous silica particles loaded with doxorubicin (0.1 mg) was dispersed in PBS. This solution was maintained in a dynamic condition for horizontal agitation at 37° C. and 200 rpm. The doxorubicin-loaded porous silica solution was settled by a centrifugal separator at each time point, an absorbance of the supernatant (λab=480 nm) was measured to determine an amount of released doxorubicin, and results thereof are shown in FIG. 13.

[2] = Release of irinotecan from porous silica particles in human plasma; conditions: loaded on negatively charged particles of Example 2-(3)-1), 37° C., 200 rpm
Description: 1 mg of porous silica particles loaded with irinotecan (0.2 mg) was dispersed in 1 mL of human plasma. This solution was maintained in a dynamic condition for horizontal agitation at 37° C. and 200 rpm. The irinotecan-loaded porous silica solution was settled by a centrifugal separator at each time point, an absorbance of the supernatant (λab=255 or 278 nm) was measured to determine an amount of released irinotecan, and results thereof are shown in FIG. 14.

[3] = Release of sorafenib from porous silica particles; conditions: loaded on particles of Example 1-(11)-5)(i) (hydrophobic substituent); 1×PBS, 37° C., 200 rpm
Description: 1 mg of porous silica particles loaded with sorafenib (0.1 mg) was dispersed in 10 mL of 1×PBS mL. This solution was maintained in a dynamic condition for horizontal agitation at 37° C. and 200 rpm. The sorafenib-loaded porous silica solution was settled by a centrifugal separator at each time point, an absorbance of the supernatant (λab=270 nm) was measured to determine an amount of released sorafenib, and results thereof are shown in FIG. 15.

[4] = Release of p53 peptides from porous silica particles; conditions: loaded on particles of Example 1-(11)-5)(i), 37° C., 20 rpm
Description: 5 mg of particles loaded with p53 peptides was put in 5 mL of 1×PBS containing 10% FBS or 5 mL of 1×PBS, and held in a dynamic environment while rotating at 37° C. and 20 rpm. The solution was centrifuged at 8500 rpm at each time point, and a fluorescent intensity of 5(6)-carboxy fluorescein (FAM) as a fluorescent label coupled to p53 peptide in the supernatant was measured ([…]: 480 nm, Emission: 520 nm).

[5] = Release of Cy5-siRNA from porous silica particles; conditions: Cy5-siRNA loaded on particles of Example 2-(1)-2)(ii); SBF (pH 7.4, 37° C.), 60 rpm
Description: 10 μl of the porous silica particles loaded with Cy5-siRNA was re-suspended in SBF (pH 7.4, 37° C.) and then put in a permeable membrane having a pore diameter of 20 kDa (tube in FIG. 18).
Thereafter, the permeable tube was dipped in 1.5 ml of SBF.
Before 24 hours, the released solvent was recovered at a time passing 0.5, 1, 2, 4, 8, 12 and 24 hours. Thereafter, 0.5 ml of released solvent was recovered at an interval of 24 hours for fluorescence measurement, followed by addition of SBF in equal amount.
Fluorescent intensity of Cy5-siRNA was measured at a wavelength of 670 nm (λex=647 nm) to determine a release degree of siRNA, and results thereof are shown in FIG. 19.

[6] = Release of RNase A from porous silica particles; conditions: over 250 hours or more; SBF (pH 7.4) or PBS (pH 7.4), 37° C.; loaded on particles of Example 1-(9)
Description: 100 μg of the porous silica particles loaded with RNase A having fluorescence labeled therewith was re-suspended in 200 μl of SBF (pH 7.4) or PBS (pH 7.4).
Release of RNase A was performed at 37° C. while horizontally stirring at 60 rpm.
At a time point of 6, 12, 24, 48, 96, 144 and 240 hours, 200 μl of released solvent was recovered for fluorescence measurement, followed by addition of SBF or PBS in equal amount.

release of doxorubicin (in words) [1]: relatively quickly released
time over which doxorubicin was continuously released [1]: ≥ 70 h
Molecule: COc1cccc2c1C(=O)c1c(O)c3c(c(O)c1C2=O)C[C@@](O)(C(=O)CO)C[C@@H]3O[C@H]1C[C@H](N)[C@H](O)[C@H](C)O1 [doxorubicin]

irinotecan released ([2]; after 5.5 hours): about 50%
time over which irinotecan was continuously released [2]: ≥ 120 h
Molecule: CCc1c2c(nc3ccc(OC(=O)N4CCC(N5CCCCC5)CC4)cc13)-c1cc3c(c(=O)n1C2)COC(=O)[C@]3(O)CC [irinotecan]

release of sorafenib (in words) [3]: very slowly released
Molecule: CNC(=O)c1cc(Oc2ccc(NC(=O)Nc3ccc(Cl)c(C(F)(F)F)c3)cc2)ccn1 [sorafenib]

Further lines, the molecule ahead of its results:

Molecule: Z-Gly-Gly-Qln-Ser-Qln-Qln-Thr-Phe-Y-Asn-Leu-Trp-Arg-Leu-Leu-X-Qln-Asn-NH2 (GGXSXXTFXNLWRLLXXN; not fully specified; FAM label; triazole staple; C-terminal amide; p53 peptide; SITE 3 1 - Xaa is Qln; 2 - Xaa is Qln; SITE 9 3 - Xaa is a non-natural amino acid introduced with an alkyne functional group wherein 4-pentynoic acid is introduced at a side chain of D-Lys; SITE 16 4 - Xaa is a non-natural amino acid introduced with an azide functional group and denotes 2-amino-5-azido-pentanoic acid; SITE 17 5 - Xaa is Qln) [FAM-labelled triazole-stapled peptide mimicking p53, antagonist of hMDM2]
release of p53 peptide (in words) ([4]; 1×PBS containing 10% FBS): may be released outside the particle
release of p53 peptide (in words) ([4]; 1×PBS): not released

Molecule: siRNA: 21 base pair duplex siRNA that targets green fluorescent protein (GFP), SEQ ID NO: 1 and 2; loaded on particles of Example 2-(1)-2)(ii) (sense GGCUACGUCCAGGAGCGCACC; antisense UGCGCUCCUGGACGUAGCCUU; Cy5 label, chemistry not fully specified)
time over which 50% of siRNA was released [5]: about 48 hours

B1: RNase A: RNase A (Sigma Aldrich, R6513), fluorescence labeled, loaded on particles of Example 1-(9) (protein, UniProt P61823 27-150, looked up)
Ribonuclease pancreatic: KETAAAKFERQHMDSSTSAASSSNYCNQMMKSRNLTKDRCKPVNTFVHESLADVQAVCSQKNVACKNGQTNCYQSYSTMSITDCRETGSSKYPNCAYKTTQANKHIIVACEGNPYVPVHFDASV
modifications: fluorescence labeled
RNase A released [6]: ~100%
